{"source": "patent US9289411B2", "about": "“Anti-HCV agent” (NATIONAL UNIVERSITY CORPORATION OKAYAMA UNIVERSITY, priority 2011, dated 2016)", "key": {"[1]": {"test_system": "HCV-RNA replication in 1B-4R cells (HCV-1B-4 strain, HuH-7-derived)", "test": "microbe, parasite or virus in culture", "type": "cell-based, HCV genotype 1b", "details": "for EC50: Hepatitis C virus, 72 hours, renilla luciferase activity", "from_the_text": "(§3) Assay systems using OR6 cells (HCV-O strain), 1B-4R cells (HCV-1B-4 strain), and AH1R cells (HCV-AH1R strain) as HuH-7 cell-derived full-length HCV-RNA-replicating cells, and ORL8 cells (HCV-O strain), ORL11 cells (HCV-O strain), 1B-4RL cells (HCV-1B-4 strain), and KAH5RL cells (HCV-KAH5 strain) as Li23 cell-derived full-length HCV-RNA-replicating cells were used for the quantitative analysis of anti-HCV activity and evaluation of a cytotoxic effect in the present invention. […] In addition, all the HCV strains belong to genotype 1b."}, "HCV RNA in ORL8 cells": {"test_system": "HCV RNA in ORL8 cells", "test": "Production of cured cells from ORL8 cells by treatment with N-89", "type": "cell-based, HCV genotype 1b", "description": "A drug treatment method for the cells was performed according to a method with IFN-γ (1,000 IU/mL) (Abe K et al., Virus Res. 125:88-97, 2007) generally used in the production of cured cells by the inventors of the present invention.\n(§1) 4×10^5 ORL8 cells were plated onto a 10-cm plate (10 mL of medium in the absence of G418) (Day 1), and N-89 was added so as to achieve a final concentration of 1 μM the next day (Day 2). After 3 days (Day 5), the cells were diluted 10-fold, and N-89 was added again the next day. This operation was repeated an additional four times (N-89 was added six times in total: Days 2, 6, 10, 14, 18, and 22). At the time of the dilution of the cells (Day 13), which was performed 3 days after the third addition of N-89, the cells were divided into two plates with medium in the presence of G418 (neomycin) (0.3 mg/mL) and medium in the absence of G418. Then, N-89 was added three times, a plurality of plates were prepared at the time of the final dilution of the cells, and finally, one of the plates for each of the media was subjected to CBB staining (Day 26).\nFIG. 14 show the results. […] The ORL8 cells cultured in the medium in the presence of G418 were all killed, whereas the ORL8 cells cultured in the absence of G418 became confluent at a normal proliferation rate. In order to confirm that HCV RNA was eliminated from the cells, Western blot analysis was performed using an anti-HCV core antibody and an anti-HCV NS5B antibody (FIG. 14c). The ORL8 cells were used as a positive control."}, "[2]": {"test_system": "HCV-RNA replication in OR6 cells (HCV-O strain, HuH-7-derived)", "test": "microbe, parasite or virus in culture", "details": "for EC50: Hepatitis C virus, OR6, 72 h; for SI (CC50/EC50): OR6 cells", "text": "Assay systems using OR6 cells (HCV-O strain), 1B-4R cells (HCV-1B-4 strain), and AH1R cells (HCV-AH1R strain) as HuH-7 cell-derived full-length HCV-RNA-replicating cells, and ORL8 cells (HCV-O strain), ORL11 cells (HCV-O strain), 1B-4RL cells (HCV-1B-4 strain), and KAH5RL cells (HCV-KAH5 strain) as Li23 cell-derived full-length HCV-RNA-replicating cells were used for the quantitative analysis of anti-HCV activity and evaluation of a cytotoxic effect in the present invention. The three cell lines, i.e., the 1B-4R cells, the 1B-4RL cells, and the KAH5RL cells have been disclosed in WO 2010/026965 A1. The AH1R cells may be produced with reference to Mori K et al., BBRC, 371:104-109, 2008 and WO 2010/026965 A1. In addition, all the HCV strains belong to genotype 1b.\nAs necessary, an increase or decrease in expression level of an HCV protein (core protein) was examined by a Western blot method.\nIn the measurement of the renilla luciferase activity and the measurement by the WST-1 method, experiments were performed in three wells independent of each other, and their means and standard deviation were calculated.\nOR6 cells, which had been cultured in general medium for subculture, were plated onto a 24-well plate (2×10^4 cells in 1 mL of medium for […] cell line per well) and cultured. After 24 hours, N-89 was added so as to achieve concentrations of 20 μM, a 2-fold dilution series from 20 μM (10, 5, 2.5, 1.3, 0.63, and 0.31 μM), and 0, or N-251 was added so as to achieve concentrations of 10 μM, a 2-fold dilution series from 10 μM (5, 2.5, 1.3, 0.63, 0.31, and 0.16 μM), and 0. The renilla luciferase activities were measured 72 hours after the culture. N-89 and N-251 were diluted with DMSO.\nThe anti-HCV activity of artemisinin was examined using OR6 cells and ORL8 cells and the EC50 values were calculated. An experimental scale and schedule are the same as those in Example 1.\nArtemisinin was added so as to achieve concentrations of 100 μM, a 2-fold dilution series from 100 μM (50, 25, 13, 6.3, 3.1, and 1.6 μM), and 0. The luciferase activities were measured 72 hours after the culture."}, "[3]": {"test": "Cytotoxic effect summarized over cells derived from various HCV strains (WST-1)", "type": "cell-based", "details": "human; seven full-length HCV-RNA-replicating cell lines; read-out: CC50 values, range over all cells", "from_the_text": "as §3"}, "[4]": {"test": "Cytotoxic effect, WST-1 cell proliferation assay in AH1R cells", "type": "cell-based", "details": "human", "from_the_text": "as §3\nThe WST-1 cell proliferation assay was performed 72 hours after the culture."}, "[5]": {"test_system": "HCV RNA in OL11 cells (HCV-O strain-derived full-length HCV-genome-replicating cells)", "test": "Production of cured cells from OL11 cells subcultured for 3 years", "type": "cell-based", "details": "treated similarly with N-89", "description": "as §1\n(§2) Further, cells obtained by subculturing HCV-O strain-derived full-length HCV-genome-replicating cells (OL8 cells and OL11 cells) (Kato et al., Virus Res. 146:41-50, 2009) for 3 years (the cells had acquired the status of genetic diversity (called quasispecies) owing to various mutations in an HCV genome caused by the sustained replication of the HCV genome) were used and similarly treated with N-89."}, "[6]": {"test_system": "HCV RNA in OL8 cells (HCV-O strain-derived full-length HCV-genome-replicating cells)", "test": "Production of cured cells from OL8 cells subcultured for 3 years", "type": "cell-based", "details": "treated similarly with N-89", "description": "as §1, §2"}, "[7]": {"test_system": "HCV-RNA replication in ORL8 cells", "test": "Influence of oxidizing agents KNO3 and NaClO4 on anti-HCV activity in ORL8 cells", "type": "cell-based, HCV genotype 1b", "details": "N-89 0.5 μM + KNO3 or NaClO4 10 μM, 72 hours", "description": "The effects of addition of KNO3 and NaClO4 on the anti-HCV activity of N-89 were examined using ORL8 cells.\nN-89 and KNO3 or NaClO4 were simultaneously added so that the concentrations of N-89 and KNO3 or NaClO4 were set to 0.5 μM and 10 μM, respectively. The luciferase activity was measured 72 hours after the culture."}, "1B-4RL cells": {"test_system": "1B-4RL cells", "test": "Cytotoxic effect, WST-1 cell proliferation assay in 1B-4RL cells", "type": "cell-based, human", "details": "72 hours", "from_the_text": "as §3\nN-89 was added at the concentrations used for the measurement of the luciferase activity, and N-251 was added so as to achieve concentrations of 2 μM, a 2-fold dilution series from 2 μM (1, 0.5, 0.25, 0.13, 0.06, and 0.03 μM), and 0. The WST-1 cell proliferation assay was performed 72 hours after the addition."}, "[8]": {"test": "Cytotoxic effect, WST-1 cell proliferation assay in KAH5RL cells", "type": "cell-based, human", "details": "human; KAH5RL cells, 72 hours, WST-1", "method": "(§4) The concentrations of N-89 and N-251 were the same as the concentrations used for the measurement of the luciferase activity, and the WST-1 cell proliferation assay was performed 72 hours after the addition."}, "KAH5RL cells": {"test_system": "KAH5RL cells", "test": "Cytotoxic effect, WST-1 cell proliferation assay in KAH5RL cells", "type": "cell-based, human", "details": "KAH5RL vs ORL8", "method": "as §4"}}, "data": [{"compound": "C1CCCCCC2(CCCCC1)OOCCCOO2", "note": "[N-89, 1,2,6,7-tetraoxaspiro[7,11]nonadecane]", "values": [{"measurement": "SI (CC50/EC50)", "setting": "[1]", "value": 22}, {"measurement": "EC50", "setting": "[1]", "value": 420, "unit": "nM"}, {"measurement": "HCV core protein and NS5B in treated cells (Western blot)", "setting": "HCV RNA in ORL8 cells; ORL8 cells treated with N-89 1 μM, added six times, Day 26", "value": "none of a core protein and NS5B was detected"}, {"measurement": "treated cells cultured in medium in the presence of G418 (CBB staining)", "setting": "HCV RNA in ORL8 cells; ORL8 cells, N-89 1 μM, G418 0.3 mg/mL", "value": "all killed"}, {"measurement": "production of cured cells", "setting": "HCV RNA in ORL8 cells; ORL8 cells, N-89 1 μM, added six times", "value": "cured cells were able to be produced"}, {"measurement": "EC50", "setting": "[2]", "value": 660, "unit": "nM"}, {"measurement": "SI (CC50/EC50)", "setting": "[2]", "value": 14}, {"measurement": "CC50", "setting": "[3]", "value": "500 to 9300", "unit": "nM"}, {"measurement": "CC50 at 72 h", "setting": "[4]", "value": "~500", "unit": "nM"}, {"measurement": "production of cured cells", "setting": "[5]", "value": "cured cells were able to be produced"}, {"measurement": "production of cured cells", "setting": "[6]", "value": "cured cells were able to be produced"}, {"measurement": "influence of KNO3 or NaClO4 in combination on the anti-HCV activity", "setting": "[7]", "value": "no influence"}]}, {"compound": "OCCCCCCC1COOC2(CCCCCCCCCCC2)OOC1", "note": "[N-251, 6-(1,2,6,7-tetraoxaspiro[7,11]nonadec-4-yl)]", "values": [{"measurement": "SI (CC50/EC50)", "setting": "[1]", "value": 3.9}, {"measurement": "EC50", "setting": "[1]", "value": 980, "unit": "nM"}, {"measurement": "EC50", "setting": "[2]", "value": 690, "unit": "nM"}, {"measurement": "SI (CC50/EC50)", "setting": "[2]", "value": 4.4}, {"measurement": "CC50", "setting": "[3]", "value": "490 to 3800", "unit": "nM"}, {"measurement": "CC50", "setting": "1B-4RL cells", "value": 1900, "unit": "nM"}, {"measurement": "CC50 at 72 h", "setting": "[8]", "value": 3200, "unit": "nM"}, {"measurement": "CC50 fold higher in KAH5RL cells than in ORL8 cells", "setting": "KAH5RL cells", "value": "about 2.5 fold"}]}]}
